# Key:
# [1] = Stability of compound in pH 6.8 intestinal enzyme-free fluid assessed as decomposition measured within 20 mins by HPLC analysis; assay type: ADME; settings: buffer, pH 6.8, 20 min
# [2] = Stability of compound in pH 1.5 gastric enzyme-free fluid assessed as decomposition measured within 20 mins by HPLC analysis; assay type: ADME; settings: buffer, pH 1.5, 20 min
# [3] = Aqueous solubility of compound; assay type: physicochemical
# [4] = Octanol/water partition coefficient, log P of the compound by HPLC analysis; assay type: physicochemical
# [5] = Half life in pH 6.8 intestinal enzyme-free fluid assessed as parent compound remaining neutralized with 0.1 N triethylamine solution at 20 mins interval for 3 hrs by HPLC analysis; assay type: ADME
# [6] = Half life in pH 1.5 gastric enzyme-free fluid assessed as parent compound remaining neutralized with 0.1 N triethylamine solution at 20 mins interval for 3 hrs by HPLC analysis; assay type: ADME
# [7] = Apparent permeability in human Caco-2 cells measured after 15 mins by LC-MS analysis; assay type: ADME, cell-based
# [8] = Half life in mouse plasma at 0.1 to 50 ppm by LC-MS analysis; assay type: ADME, cell-free; settings: dose 0.1-50 ppm
# [9] = Stability in mouse plasma at 1 to 500 ppm measured within 1 min by LC-MS analysis; assay type: ADME, cell-free; settings: dose 1-500 ppm
# [10] = aqueous medium, read-out: solubility
SMILES,"solubility [3, 10]",logP [4],half-life [5],half-life [6],other results
O=C(CCCC[C@@H]1CCSS1)OCCN1CCOCC1,< 10 µM,2.64,,,Drug degradation [1]: Active; Drug degradation [2]: Active
O=C(CCCC[C@@H]1CCSS1)OCCOCCOCCO,,,> 2 h,> 2 h,
CN1CCN(CCOC(=O)CCCC[C@@H]2CCSS2)CC1,,,> 2 h,> 2 h,
O=C(CCCC[C@@H]1CCSS1)OC[C@H]1OC(O)[C@H](O)[C@@H](O)[C@@H]1O (some centres undefined),< 2000 µM,0.94,,,
O=C(CCCC[C@@H]1CCSS1)O[C@H]1[C@H](O)[C@@H](CO)OC(O)[C@@H]1O (some centres undefined),> 10000 µM,0.31,,,half-life [8]: 1.5 h
Cl.O=C(CCCC[C@@H]1CCSS1)OCCN1CCOCC1,,,,,Stability [9]: Unstable; solubility ([3]; buffer): Soluble

# Continued, in another order:
"solubility [3, 10]",logP [4],half-life [5],half-life [6],SMILES,other results
< 10 µM,2.03,> 2 h,> 2 h,O=C(CCCC[C@@H]1CCSS1)OCc1cc(=O)c(O)co1,
,,> 2 h,> 2 h,Cc1oc(=O)oc1COC(=O)CCCC[C@@H]1CCSS1,Papp at 0.25 h [7]: 15.9 ×10⁻⁶ cm/s
,,> 2 h,> 2 h,O=C(CCCC[C@@H]1CCSS1)OC(CO)CO,

# Source: ChEMBL document CHEMBL5113465, “Design, synthesis and evaluation of alpha lipoic acid derivatives to treat multiple sclerosis-associated central neuropathic pain” (Bioorg Med Chem, 2022)
